For 6 compounds, Activity and relative activity results are on record in ChEMBL document CHEMBL1132088, “Three-dimensional structure-function relationship of vitamin D: side chain location and various activities” (1999).

The structures appear in SMILES notation.

Assay [1] deals with T1, Vitamin D3 receptor (Sus scrofa) (UniProt A3RGC1).
T1 sequence (whole entry): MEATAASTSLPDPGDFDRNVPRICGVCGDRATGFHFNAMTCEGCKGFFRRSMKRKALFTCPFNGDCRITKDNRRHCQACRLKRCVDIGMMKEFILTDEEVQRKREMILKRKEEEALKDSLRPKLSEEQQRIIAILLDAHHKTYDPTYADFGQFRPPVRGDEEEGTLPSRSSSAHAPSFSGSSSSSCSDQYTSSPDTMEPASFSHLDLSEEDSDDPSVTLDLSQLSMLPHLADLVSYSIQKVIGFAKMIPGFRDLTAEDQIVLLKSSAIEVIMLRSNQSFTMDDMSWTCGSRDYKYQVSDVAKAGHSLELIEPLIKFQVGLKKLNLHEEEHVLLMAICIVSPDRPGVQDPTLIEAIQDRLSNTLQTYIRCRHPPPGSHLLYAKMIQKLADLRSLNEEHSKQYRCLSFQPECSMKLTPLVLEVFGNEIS
Kind of assay: (§1) Affinity for porcine Vitamin D3 receptor. Details: reference not given here.

Assay [2] has as its system Rattus norvegicus. The experiment in a line: In vivo calcemic activity expressed as relative activity for Intestinal calcium transport (ICA) in vitamin D deficient rats.
For assay [3], the target named is T2, Vitamin D-binding protein (Rattus norvegicus) (UniProt P04276).
T2 sequence (whole entry): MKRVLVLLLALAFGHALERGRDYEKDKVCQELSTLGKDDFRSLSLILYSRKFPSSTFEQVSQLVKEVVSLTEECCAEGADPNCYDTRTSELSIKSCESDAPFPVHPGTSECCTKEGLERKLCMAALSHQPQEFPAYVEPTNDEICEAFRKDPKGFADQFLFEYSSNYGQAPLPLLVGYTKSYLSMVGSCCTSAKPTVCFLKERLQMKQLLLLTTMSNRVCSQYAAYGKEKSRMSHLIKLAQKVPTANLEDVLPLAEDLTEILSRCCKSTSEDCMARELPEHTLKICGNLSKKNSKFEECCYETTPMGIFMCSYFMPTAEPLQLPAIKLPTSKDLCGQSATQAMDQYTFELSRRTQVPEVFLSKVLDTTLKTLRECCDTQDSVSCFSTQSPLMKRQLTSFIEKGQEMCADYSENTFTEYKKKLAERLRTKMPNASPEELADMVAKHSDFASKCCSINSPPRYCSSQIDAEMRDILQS
The experiment in a line: Binding affinity for rat Vitamin D binding protein. On the set-up: reference not given here.

In another assay the test system is HL-60. Kind of assay: In vitro activity expressed as relative activity to induce the differentiation of human promyelocytic leukemia (HL-60) cells by NBT reduction assay.
Assay [4] has as its system Keratinocyte cell line. Kind of assay: In vitro activity expressed as relative activity to inhibit the proliferation of primary cultures of human foreskin keratinocytes by measuring [3H]thymidine incorporation.
The target in assay [5] is T3, Vitamin D3 receptor (Bos taurus) (UniProt Q28037).
T3 sequence (whole entry): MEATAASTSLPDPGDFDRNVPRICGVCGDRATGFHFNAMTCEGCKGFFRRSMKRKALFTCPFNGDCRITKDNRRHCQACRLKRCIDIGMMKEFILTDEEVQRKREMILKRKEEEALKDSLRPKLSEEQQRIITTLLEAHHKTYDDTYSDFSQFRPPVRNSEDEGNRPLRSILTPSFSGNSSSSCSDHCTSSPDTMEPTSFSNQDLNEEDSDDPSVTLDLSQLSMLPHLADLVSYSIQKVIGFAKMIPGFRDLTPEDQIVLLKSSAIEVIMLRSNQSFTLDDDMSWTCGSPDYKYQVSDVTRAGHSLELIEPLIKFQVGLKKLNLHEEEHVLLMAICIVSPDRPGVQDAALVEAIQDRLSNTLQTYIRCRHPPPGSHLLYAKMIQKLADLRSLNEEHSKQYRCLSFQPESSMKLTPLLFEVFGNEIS
The experiment in a line: Affinity for bovine Vitamin D3 receptor. Details: reference not given here.

Assay [6] can be described thus: Gene transcriptional activity against osteopontin (OPN). The assay is classed as functional.
Assay [7] relates to Rattus norvegicus. Kind of assay: In vivo calcemic activity expressed as relative activity for Bone calcium mobilization (BCM) in vitamin D deficient rats.
Assay [8] deals with MCF7. Kind of assay: In vitro activity expressed as relative activity to inhibit the proliferation of human breast cancer cells (MCF-7) by measuring [3H]thymidine incorporation. (Incorporation of labelled thymidine or its analogues reports DNA synthesis.)
In assay [9] the test system is Keratinocyte cell line. Kind of assay: In vitro activity expressed as relative activity to inhibit the proliferation of primary cultures of human foreskin keratinocytes by measuring [3H]thymidine incorporation. The source holds these as a separate data set.
In assay [10] the target is T1, Vitamin D3 receptor (Sus scrofa). The assay is described as §1.
In assay [11] the test system is MCF7. The experiment in a line: In vitro activity expressed as relative activity to inhibit the proliferation of human breast cancer cells (MCF-7) by measuring [3H]thymidine incorporation. This is another data set of the same source.

Take `C=C1/C(=C\C=C2/CCC[C@]3(C)[C@@H]([C@H](C)CCCC(C)(C)O)CC[C@@H]23)C[C@@H](O)C[C@@H]1O` [CALCITRIOL]: the Activity in assay [1], in assay [3] and in assay [5] was 100 each time. Also, the relative activity (in the assay with Rattus norvegicus [2]; with HL-60; in the assay with Keratinocyte cell line [4]; in assay [6]; in the assay with Rattus norvegicus [7]; in the assay on MCF7 [8]) was 100% throughout.
For `C=C1/C(=C\C=C2/CCC[C@]3(C)[C@@H]([C@@H](C)[C@@H](C)CCC(C)(C)O)CC[C@@H]23)C[C@@H](O)C[C@@H]1O`, the Activity in [1] was 1; in assay [3], < 0.25; in assay [5], 0.4. Besides, the relative activity in the assay with Rattus norvegicus [2] is < 1%; in the assay with HL-60, 8%; with Keratinocyte cell line [9], 60%; in [6], 3%; in the assay on Rattus norvegicus [7], 5%; in the assay with MCF7 [8], 70%.
Turning to `C=C1/C(=C\C=C2/CCC[C@]3(C)[C@@H]([C@H](C)[C@@H](C)CCC(C)(C)O)CC[C@@H]23)C[C@@H](O)C[C@@H]1O`, the Activity is 33 in [1], 67 in [3] and 33 in assay [5]. For the same compound, the relative activity in the assay with Rattus norvegicus [2] was 50%; in the assay on HL-60 it was 100%; in assay [6] it was 22%; in the assay with Rattus norvegicus [7], 26%.
As for `C=C1/C(=C\C=C2/CCC[C@]3(C)[C@@H]([C@@H](C)CCCC(C)(C)O)CC[C@@H]23)C[C@@H](O)C[C@@H]1O`, the Activity turned out to be 4000 in assay [3] and 500 in [10].
`C=C1/C(=C\C=C2/CCC[C@]3(C)[C@@H]([C@@H](C)[C@H](C)CCC(C)(C)O)CC[C@@H]23)C[C@@H](O)C[C@@H]1O`: the figures for the Activity in [1], in [3] and in [5] were 2000, < 0.25 and 1100, respectively. Moreover, the relative activity was 51% in the assay on Rattus norvegicus [2]; 12000% with HL-60; 9000% in the assay with Keratinocyte cell line [9]; 15000% in the assay on MCF7 [11]; 10000% in [6]; 220% in the assay on Rattus norvegicus [7].
For `C=C1/C(=C\C=C2/CCC[C@]3(C)[C@@H]([C@H](C)[C@H](C)CCC(C)(C)O)CC[C@@H]23)C[C@@H](O)C[C@@H]1O`, the Activity was 1.7 in assay [1], 0.45 in assay [3] and 2 in assay [5]. The relative activity in the assay on Rattus norvegicus [2] is 25%; in the assay on HL-60, 1.3%; in assay [6] it was 1%; in the assay with Rattus norvegicus [7], 32%.
